# Data: patent US20180305299A1, “N-(2-FLUORO-2-PHENETHYL)CARBOXAMIDES AS NEMATICIDES AND ENDOPARASITICIDES” (priority 2013, published 2018)
# Where a name gives a salt, the structure may show the parent alone. Read-outs that look alike come from different tables or passages of the source.
# Experiments:
# log P (HPLC-MS) = type: physicochemical
# [1] = test system: Heligmosomoides polygyrus; assay: Heligmosomoides polygyrus/mouse in vivo efficacy test; details: mice; oral; four consecutive days during early patency; dose not given
# Experimental: Heligmosomoides polygyrus/mouse
# Mice, experimentally infected by Heligmosomoides polygyrus, were treated on four consecutive days during early patency. Test compounds were formulated as solutions or suspensions and applied orally.
# Efficacy was determined as reduction of worm count in the intestine after necropsy compared to worm count in an infected and placebo-treated control group.
# Meloidogyne incognita [2] = assay: Meloidogyne incognita test (MELGIN), gall formation, solvent acetone; type: in vivo; details: application rate 20 ppm; after 14 days
# Experimental: (§1) Meloidogyne incognita—Test (MELGIN)
# To produce a suitable preparation of active compound, 1 part by weight of active compound is mixed with the stated amount of solvent, and the concentrate is diluted with water to the desired concentration.
# Vessels are filled with sand, a solution of the active ingredient, a suspension containing eggs and larvae of the southern root-knot nematode (Meloidogyne incognita) and salad seeds. The salad seeds germinate and the seedlings grow. Galls develop in the roots.
# After 14 days the nematicidal activity is determined on the basis of the percentage of gall formation. 100% means that no galls were found; 0% means that the number of galls found on the roots of the treated plants was equal to that in untreated control plants.
# Meloidogyne incognita [3] = assay: Meloidogyne incognita test (MELGIN), comparison example, solvent dimethylformamide with emulsifier; type: in vivo; details: 504 h, 21 dat, read-out: % Efficacy MELGIN
# Experimental: as §1
# To produce a suitable preparation of active compound, 1 part by weight of active compound is mixed with the stated amount of solvent, and the concentrate is diluted with emulsifier-containing water to the desired concentration.
# Vessels are filled with sand, a solution of the active ingredient, a suspension containing eggs and larvae of Meloidogyne incognita and salad seeds. The salad seeds germinate and the seedlings grow. Galls develop on the roots.
# After the specified period of time the nematicidal activity is determined on the basis of the percentage of gall formation. 100% means that no galls were found; 0% means that the number of galls found on the roots of the treated plants was equal to that in untreated control plants.
# Cooperia curticei = Cooperia curticei test (COOPCU), larval mortality; details: 120 h; for Emax at 0.8 ppm: read-out: % Efficacy COOPCU; for mortality at 20 ppm: read-out: activity (larval mortality, efficacy)
# Experimental: Cooperia curticei—Test (COOPCU)
# (§2) Solvent: dimethyl sulfoxide
# (§3) To produce a suitable preparation of active compound, 10 mg of active compound are dissolved in 0.5 ml solvent, and the concentrate is diluted with “Ringer's solution” to the desired concentration.
# Approximately 40 nematode larvae (Cooperia curticei) are transferred into a test tube containing the compound solution.
# After 5 days percentage of larval mortality is recorded. 100% efficacy means all larvae are killed; 0% efficacy means no larvae are killed.
# Cooperia curticei—Test (COOPCU) Solvent: dimethyl sulfoxide
# Haemonchus contortus = Haemonchus contortus test (HAEMCO), larval mortality; details: 120 h; for Emax at 0.8 ppm: 5 dat, read-out: % Efficacy HAEMCO; for mortality at 20 ppm: application rate 20 ppm, after 5 days, read-out: activity (larval mortality, efficacy)
# Experimental: Haemonchus contortus—Test (HAEMCO)
# as §2, §3
# Approximately 40 larvae of the red stomach worm (Haemonchus contortus) are transferred into a test tube containing compound solution.
# After 5 days percentage of larval mortality are recorded. 100% efficacy means all larvae are killed, 0% efficacy means no larvae are killed.
# Haemonchus contortus—Test (HAEMCO) Solvent: dimethyl sulfoxide
structure (smiles),measurement,setting,value
"CC(F)(CN)c1ccc(Cl)cc1Cl (stereo not drawn) [2-(2,4-dichlorophenyl)-2-fluoropropan-1-amine hydrochloride]",chromatographic logP,log P (HPLC-MS),0.89
"O=C(NCC(F)(F)c1ccc(Cl)cc1Cl)c1ccccc1C(F)(F)F [Example 1-1, N-[2-(2,4-dichlorophenyl)-2,2-difluoroethyl]-2-(trifluoromethyl)benzamide]",activity (reduction of worm count in the intestine vs placebo-treated control),[1],65%
same,"activity (nematicidal, gall formation)",Meloidogyne incognita [2],100%
same,Emax at 2 ppm,Meloidogyne incognita [3],95%
same,Emax at 0.8 ppm,Cooperia curticei,100%
same,mortality at 20 ppm,Cooperia curticei,100%
same,Emax at 0.8 ppm,Haemonchus contortus,100%
same,mortality at 20 ppm,Haemonchus contortus,100%
"CC(Cc1ccc(Cl)cc1Cl)NC(=O)c1ccccc1C(F)(F)F (stereo not drawn) [Example 1-32 known from WO-A 2012/118139, reference compound]",Emax at 2 ppm,Meloidogyne incognita [3],15%
same,Emax at 0.8 ppm,"Cooperia curticei; 0.8 ppm, 5 dat",0%
same,Emax at 0.8 ppm,Haemonchus contortus,80%
"CC(F)(CNC(=O)c1ccccc1C(F)(F)F)c1ccc(Cl)cc1Cl (stereo not drawn) [Example 1-393, N-[2-(2,4-dichlorophenyl)-2-fluoropropyl]-2-(trifluoromethyl)benzamide]","activity (nematicidal, gall formation)",Meloidogyne incognita [2],100%
same,mortality at 20 ppm,Cooperia curticei,100%
same,mortality at 20 ppm,Haemonchus contortus,100%
"O=C(NCC(F)c1ccccc1C(F)(F)F)c1ccccc1C(F)(F)F (stereo not drawn) [Example 1-399, N-{2-fluoro-2-[2-(trifluoromethyl)phenyl]ethyl}-2-(trifluoromethyl)benzamide]",mortality at 20 ppm,Haemonchus contortus,100%
"O=C(NCC(F)c1ccccc1Cl)c1ccccc1C(F)(F)F (stereo not drawn) [Example 1-400, N-[2-(2-chlorophenyl)-2-fluoroethyl]-2-(trifluoromethyl)benzamide]",mortality at 20 ppm,Haemonchus contortus,100%
"CC(F)(CNC(=O)c1ccccc1C(F)(F)F)c1ccc(Cl)cc1Cl (stereo not drawn) [Example 1-406, N-[2-(2,4-dichlorophenyl)-2-fluoropropyl]-2-(trifluoromethyl)benzamide]",chromatographic logP,log P (HPLC-MS),3.7
same,"activity (nematicidal, gall formation)",Meloidogyne incognita [2],100%
